Experiment [1] concerns HMEC-1 (microvascular endothelial cells; CD44+ve). In words: cell invasion in a modified Boyden chamber system, HMEC-1. The experiment is classed as cell-based, Human. The following applies: 48 h. As to the method: (§1) Twelve well plate polycarbonate inserts were divided into two groups with half remaining uncoated and half coated with 100 μg/cm^2 of Matrigel. The coated inserts were allowed to dry overnight at room temperature in a sterile tissue culture hood. The required cell line; HMEC-1, PC3 or MDA231 was trypsinised, re-suspended in fresh medium and the cell number calculated. 5×10^5 cells, in a total volume of 500 μl, were added to the insert (top chamber) and 1.5 ml of complete medium added to the bottom chamber of the plate as a stimulus for invasion. FKBP-L 24mer was added to both the upper and lower chamber of the plate at the required concentration in the experimental wells. The plate was incubated for 24 h (PC3 or MDA231) or 48 h (HMEC-1).
(§2) The inserts were carefully removed from their 12 well plate and inserts without Matrigel coating were placed directly into Carnoys fixative. […]
(§3) The polycarbonate inserts were cut from the holders and placed on to mounting medium on a microscope slide. […] The slides were stored at 4° C. until analysed.
(§4) Ten images from each insert were captured and the number of fluorescent cells per image was analysed by Lucia Imaging software. The ratio of cells visible on non-coated inserts compared to cells visible on Matrigel coated inserts was expressed as % invasion. […]

Experiment [2] relates to PC3 (Prostate; CD44+ve). In words: cell invasion in a modified Boyden chamber system, PC3. The experiment is classed as cell-based. The following applies: 24 h. On the procedure: as §1, §2, §3, §4
Experiment [3] deals with MDA-231 (breast; CD44+ve). In words: cell invasion in a modified Boyden chamber system, MDA-231. The following applies: 24 h. The experiment is classed as cell-based. As to the method: as §1, §2, §3, §4
Experiment [4] deals with HMEC-1. In words: cell adhesion assay on Matrigel (MTT readout). It counts as cell-based, Human. Particulars: 1 h at 37° C. As to the method: A 96-well plate was pre-coated with a thin layer of Matrigel which was allowed to set overnight. The plate wells were blocked with 0.5% BSA for 1 h at 37° C. in a 95% air/5% CO2 incubator. Human microvascular endothelial cells (HMEC-1) were trypsinised and re-suspended in fresh medium and seeded at a density of 20000 cells per well. The plates were placed at 4° C. for 10 min to allow the cells to sediment to the bottom of the wells. The required amount of medium supplemented with the FKBP-L 24mer was added to each well and the plate incubated for 1 h at 37° C. The excess medium and unattached cells were removed and the wells washed three times with sterile PBS. The wells were supplemented with fresh medium and MTT added (5 mgml^−1). The plate was incubated for a further 4 h at 37° C. DMSO was added to each well to solubilise the MTT to formazen and the plate read at 540nm, with the relative absorbance of control wells compared to FBKP-L 24mer-supplemented wells.

Experiment [5] relates to mouse endothelial cells, 2H-11. The experiment is described as follows: wound scrape assay in a mouse endothelial cell line. Particulars: 10^−14-10^−7 M; 7 hours. It counts as cell-based. As to the method:
This experiment evaluated the ability of the FKBP-L 24mer to inhibit endothelial cell migration over a dose ranges spanning from 10^−14 M to 10^−7 M. The in vitro migration assay used in these studies is a modified version of the method described by Ashton et al (1999) see supra. In this assay mouse endothelial cells, 2H-11, were obtained from the American Tissue Culture Collection and were grown in D-MEM containing 10% FCS. They were plated into individual chambers on a glass slide and grown to 90% confluence overnight. The medium was removed and the monolayer wounded. The monolayer was re-supplemented with fresh medium and the required volume of the FKBPL 24mer peptide was added to achieve a dose range from 10^−14-10^−7 M. The monolayers were incubated for 7 hours and then fixed in 4% PBS buffered paraformaldehyde.
The extent of “wound” closure was blindly assessed microscopically by an independent investigator and quantified using a calibrated eyepiece graticule (1 mm/100 μm graduation) at 20× magnification (Olympus BX 50). The extent of closure in the FKBP-L 24mer treated slides was compared to time matched sham treated controls and the % inhibition of wound closure compared to time matched controls calculated.

For experiment [6], the system named is HT29 (Colorectal tumor cell line; CD44 +ve). The experiment is described as follows: tumor cell migration, wound closure assay, HT29. The following applies: 24 hours. It counts as cell-based. On the procedure: In these experiments, the effect of recombinant FKBP-L on tumor cell migration was assessed. The in vitro migration assay used in these studies is a modified version of the method described by Ashton et al (1999) see supra. PC3, MDA231, and HT29 tumor cells were plated into individual chambers on a glass slide and grown to 90% confluence overnight. The medium was removed and the monolayers wounded. The monolayer was re-supplemented with fresh medium and the required volume of His-tagged recombinant FKBP-L protein (SEQ ID NO: 1) was added to give the final concentrations shown. The monolayers were incubated for 24 hours and then fixed in 4% PBS buffered paraformaldehyde.
The extent of “wound” closure was blindly assessed microscopically by an independent investigator and quantified using a calibrated eyepiece graticule (1 mm/100 μm graduation) at 20× magnification (Olympus BX 50). The extent of closure in the FKBP-L treated slides was compared to time matched sham-treated controls and the percent inhibition of wound closure compared to time matched controls calculated. […]
The extent of “wound” closure was blindly assessed microscopically by an independent investigator and quantified using a calibrated eyepiece graticule (1 mm/100 μm graduation) at 20× magnification (Olympus BX 50). […]

Experiment [7] has as its system MCF-7 (breast tumor cell line; CD44 −ve). In words: tumor cell migration, wound closure assay, MCF-7. It counts as cell-based. Particulars: MCF-7 (CD44 −ve); 24 h. On the procedure: The in vitro migration assay used in these studies is a modified version of the method described by Ashton et al. (1999) see supra. PC3 (prostate tumor cell line; CD44 positive; CD44 +ve), MDA231 (breast tumor cell line; CD44 +ve), HT29 (Colorectal tumor cell line; CD44 +ve), MCF-7 (breast tumor cell line; CD44 negative; CD44 −ve) and DU145 (prostate tumor cell line; CD44 −ve) were plated into individual chambers on a glass slide and grown to 90% confluence overnight. The medium was removed and the monolayers wounded. […] The monolayers were incubated for 24 h and then fixed in 4% PBS buffered paraformaldehyde.
The extent of “wound” closure was blindly assessed microscopically by an independent investigator and quantified using a calibrated eyepiece graticule (1 mm/100 μm graduation) at 20× magnification (Olympus BX 50). The extent of closure in the FKBP-L treated slides was compared to time matched sham treated controls and the % inhibition of wound closure compared to time matched controls calculated.

The values that follow come from patent US10577406B2, “FKBP-L polypeptides and uses in angiogenesis-mediated disorders” (ALMAC DISCOVERY LIMITED, priority 2006, dated 2020).

On to “H-QIRQQPRDPPTETLELEVSPDPAS-OH [FKBP-L 24mer]”, for which the “effect on cell invasion through Matrigel” value in experiment [1], in experiment [2] and in experiment [3] was “potent inhibitor” in each case. Also, in experiment [4], the “effect on cell adhesion” value is “potent inhibitor of HMEC-1 adhesion”. In addition, the “effect on wound closure in mouse endothelial cells” value in experiment [5] is on record as “inhibited wound closure”.

B1: full length recombinant FKBP-L: recombinant full length his-tagged FKBP-L protein (SEQ ID NO: 1) expressed in BL21 (DE3) (protein, listed as Homo sapiens)
chain: MRGSHHHHHHGMASMTGGQQMGRDLYDDDDKDRWGSMETPPVNTIGEKDTSQPQQEWEKNLRENLDSVIQIRQQPRDPPTETLELEVSPDPASQILEHTQGAEKLVAELEGDSHKSHGSTSQMPEALQASDLWYCPDGSFVKKIVIRGHGLDKPKLGSCCRVLALGFPFGSGPPEGWTELTMGVGPWREETWGELIEKCLESMCQGEEAELQLPGHTGPPVGLTLASFTQGRDSWELETSEKEALAREERARGTELFRAGNPEGAARCYGRALRLLLTLPPPGPPERTVLHANLAACQLLLGQPQLAAQSCDRVLEREPGHLKALYRRGVAQAALGNLEKATADLKKVLAIDPKNRAAQEELGKVVIQGKNQDAGLAQGLRKMFG
modifications: His tag
Turning to B1, the “effect on tumor cell migration” value in experiment [6] is listed as “inhibits tumor cell migration in a dose-dependent manner”; in experiment [7] it was “not in CD44 −ve tumor cell lines”.
